Measured values taken from ChEMBL document CHEMBL1772993, “Design and synthesis of novel N-hydroxy-dihydronaphthyridinones as potent and orally bioavailable HIV-1 integrase inhibitors” (J Med Chem, 2011).

How the values were obtained:
[1] = Clearance in dog; format: ADME, organism-based, Canis lupus familiaris; details: in vivo
[2] = Octanol-buffer distribution coefficient, log D of the compound at pH 7.4; format: physicochemical
[3] = Volume of distribution at steady state in dog at 1 mg/kg, iv and 4.2 mg/kg, po; format: ADME, organism-based, Canis lupus familiaris; details: in vivo, read-out: Vdss
[4] = Clearance in dog at 1 mg/kg, iv and 4.2 mg/kg, po; format: ADME, organism-based, Canis lupus familiaris; details: in vivo
[5] = Oral bioavailability in dog at 4.2 mg/kg; format: ADME, organism-based, Canis lupus familiaris; details: in vivo
[6] = Half life in dog at 1 mg/kg, iv and 4.2 mg/kg, po; format: ADME, organism-based, Canis lupus familiaris; details: in vivo

| SMILES | logD [2] | also measured |
| --- | --- | --- |
| CN(O)C(=O)c1cc2c(CN3CCC[C@H]3C(N)=O)cn(Cc3ccc(F)cc3)c2cn1 | 1.7 | clearance [1]: 15 mL/min/kg |
| O=C1c2ncc3c(ccn3Cc3ccc(F)cc3)c2CCN1O | 1.39 | – |
| O=C1c2ncc3c(ccn3Cc3ccc(F)cn3)c2CCN1O | 0.6 | – |
| O=C1c2ncc3c(ccn3Cc3ncc(F)cc3F)c2CCN1O | 0.77 | – |
| N#Cc1cc(F)ccc1Cn1ccc2c3c(ncc21)C(=O)N(O)CC3 | 1.15 | – |
| N#Cc1c(Cn2ccc3c4c(ncc32)C(=O)N(O)CC4)ccc(F)c1Cl | 1.7 | – |
| CN(C)Cc1cn(Cc2ccc(F)cc2)c2cnc3c(c12)CCN(O)C3=O | 0.89 | – |
| CN(CCO)Cc1cn(Cc2ccc(F)cc2)c2cnc3c(c12)CCN(O)C3=O | 0.67 | – |
| O=C1c2ncc3c(c(CN4CCCCC4)cn3Cc3ccc(F)cc3)c2CCN1O | 1.15 | Vd [3]: 6.7 L/kg; clearance [4]: 30 mL/min/kg; bioavailability [5]: 33%; half-life [6]: 2.6 h |
| COCCN(C)Cc1cn(Cc2ccc(F)cc2)c2cnc3c(c12)CCN(O)C3=O | 1.46 | – |
| CN(Cc1cn(Cc2ccc(F)cc2)c2cnc3c(c12)CCN(O)C3=O)CC1CC1 | 1.52 | – |
| O=C1c2ncc3c(c(CN4CCC(F)(F)C4)cn3Cc3ccc(F)cc3)c2CCN1O | 2.02 | – |
| O=C1c2ncc3c(c(COCCc4ccccn4)cn3Cc3ccc(F)cc3)c2CCN1O | 1.56 | – |
| O=C1c2ncc3c(c(COCc4ccccn4)cn3Cc3ccc(F)cc3)c2CCN1O | 1.63 | – |
| O=C1c2ncc3c(c(COCC4CCOCC4)cn3Cc3ccc(F)cc3)c2CCN1O | 1.83 | – |
| CC(C)OCCOCc1cn(Cc2ccc(F)cc2)c2cnc3c(c12)CCN(O)C3=O | 2.12 | – |
| O=C1c2ncc3c(c(COCCCc4ccccn4)cn3Cc3ccc(F)cc3)c2CCN1O | 2.15 | – |
| O=C1c2ncc3c(c(COCc4ccccc4F)cn3Cc3ccc(F)cc3)c2CCN1O | 2.47 | – |
| O=C(O)CCc1cn(Cc2ccc(F)cc2)c2cnc3c(c12)CCN(O)C3=O | -0.74 | – |
| O=C1c2ncc3c(c(CCCN4CCOCC4)cn3Cc3ccc(F)cc3)c2CCN1O | 0.1 | – |
| CC(=O)N(C)CCCc1cn(Cc2ccc(F)cc2)c2cnc3c(c12)CCN(O)C3=O | 0.76 | – |
| CC(C)(O)CCc1cn(Cc2ccc(F)cc2)c2cnc3c(c12)CCN(O)C3=O | 1.67 | – |
| O=C1c2ncc3c(c(CCCOC4CCOCC4)cn3Cc3ccc(F)cc3)c2CCN1O | 2.1 | – |
| O=C1c2ncc3c(c(CCC(F)(F)F)cn3Cc3ccc(F)cc3)c2CCN1O | 2.32 | – |
| O=C1c2ncc3c(c(S(=O)(=O)N4CCOCC4)cn3Cc3ccc(F)cc3)c2CCN1O | 0.18 | – |
| COCCN(C)S(=O)(=O)c1cn(Cc2ccc(F)cc2)c2cnc3c(c12)CCN(O)C3=O | 1.14 | – |
| CN(C)S(=O)(=O)c1cn(Cc2ccc(F)cc2)c2cnc3c(c12)CCN(O)C3=O | 1.29 | – |
| O=C1c2ncc3c(c(S(=O)(=O)N4CCCC4)cn3Cc3ccc(F)cc3)c2CCN1O | 1.63 | – |
| CC1CCN(S(=O)(=O)c2cn(Cc3ccc(F)cc3)c3cnc4c(c23)CCN(O)C4=O)CC1 | 2.14 | – |
| CN(O)C(=O)c1cc2ccn(Cc3ccc(F)cc3)c2cn1 | 2.04 | – |
